Data reported in article PMC4839570, “Novel Anthra[1,2-c][1,2,5]Thiadiazole-6,11-Diones as Promising Anticancer Lead Compounds: Biological Evaluation, Characterization & Molecular Targets Determination” (PLoS ONE, 2016).
Where two headings read alike, the source gives them in different places.

Legend:
[1] = tested on: A549/ATCC; assay: NCI-60 cytotoxicity screen; type: cell-based
[2] = tested on: EKVX; assay: NCI-60 cytotoxicity screen; type: cell-based
[3] = tested on: NCI-H226; assay: NCI-60 cytotoxicity screen; type: cell-based
[4] = tested on: NCI-H522; assay: NCI-60 cytotoxicity screen; type: cell-based
[5] = tested on: SF-268; assay: NCI-60 cytotoxicity screen; type: cell-based
[6] = tested on: SNB-75; assay: NCI-60 cytotoxicity screen; type: cell-based
[7] = tested on: U251; assay: NCI-60 cytotoxicity screen; type: cell-based
[8] = tested on: OVCAR-4; assay: NCI-60 cytotoxicity screen; type: cell-based
[9] = tested on: 786-0; assay: NCI-60 cytotoxicity screen; type: cell-based
[10] = tested on: CAKI-1; assay: NCI-60 cytotoxicity screen; type: cell-based
[11] = tested on: BT-549; assay: NCI-60 cytotoxicity screen; type: cell-based
[12] = tested on: BSY-1; assay: JFCR-39 cytotoxicity screen; type: cell-based
[13] = tested on: SF-539; assay: JFCR-39 cytotoxicity screen; type: cell-based
[14] = tested on: SNB-75; assay: JFCR-39 cytotoxicity screen; type: cell-based
[15] = tested on: HCT-15; assay: JFCR-39 cytotoxicity screen; type: cell-based
[16] = tested on: HCT-116; assay: JFCR-39 cytotoxicity screen; type: cell-based
[17] = tested on: NCI-H226; assay: JFCR-39 cytotoxicity screen; type: cell-based
[18] = tested on: OVCAR-5; assay: JFCR-39 cytotoxicity screen; type: cell-based
[19] = tested on: RXF-631L; assay: JFCR-39 cytotoxicity screen; type: cell-based
[20] = tested on: MKN1; assay: JFCR-39 cytotoxicity screen; type: cell-based
[21] = tested on: PC-3; assay: JFCR-39 cytotoxicity screen; type: cell-based
[22] = tested on: NCI 60 human cancer cell lines; assay: NCI-60 screen, means, ranges and selectivity over panels; type: cell-based; details: for GI50: Homo sapiens
Protocol: Both NSC745885 and NSC757963 satisfied the pre-determined threshold inhibition criteria of the NCI-60 One-Dose Screening, so they were tested against the panels of 60 cancer cell lines of NCI (NCI-60) and 39 cancer cell lines of JFCR (JFCR-39), each cell line was tested at five small doses of our compounds. Results are expressed as the 50% growth inhibition concentration (GI50), the 50% lethal concentration (LC50) and the total growth inhibition (TGI), compared to the values of untreated control cells.
To characterize the selectivity of NSC745885 and NSC757963 further among the different types of cancer, we determined their selectivity ratios towards each cell line subpanel used in the cytotoxicity experiments. […] The promising activity of this compound is evident from the small mean GI50 values. […] The strongest activity was towards the leukemia subpanel and the least one was towards the colon cancer subpanel. […] The strongest activity was towards the melanoma subpanel and the least one was towards the colon cancer subpanel.
All cell lines were published before.

[23] = tested on: normal cardiac myoblast H9c2 cells; details: rat
Protocol: Briefly, 96 well microtiter plates were inoculated with the specified human cancer cell lines in RPMI 1640 medium containing 5% fetal bovine serum and 2 mM L-glutamine at the specified plating densities. The microtiter plates were incubated at 37°C, 5% CO2, and 100% relative humidity for 24 h. The test compounds were solubilized in DMSO at 400-fold the desired final maximum test concentration, diluted with complete medium containing gentamicin and added to the wells of the microtiter plates to achieve the final desired compound concentration, then incubated for an additional 48 h at the same incubation conditions. The media were removed, the cells were fixed then stained with sulforhodamine B and the unbound dye was removed by washing with acetic acid. The bound dye was resolubilized with trizma base and the absorbance at 515 nm was measured. Cells were stained with the WST-1 cell proliferation reagent instead of sulforhodamine B in some experiments and absorbance were measured at 440 nm. The three dose response parameters GI50, TGI and LC50 were calculated for each experimental compound as follows [48]: For values where Ti ≥ Tz the formula is [ (Ti-Tz) / (C-Tz)] x 100 For values where Ti < Tz the formula is [ (Ti-Tz) / Tz] x 100 Where Ti is the absorbance of the solubilized Sulforhodamine B (SRB) (representing the number of cells) of the five different concentrations of the compound used in the test, Tz is the absorbance of the SRB at time zero, and C is the absorbance of the SRB of the control growth.

[24] = tested on: MDA-MB-468; assay: NCI-60 cytotoxicity screen
[25] = Homo sapiens, Fig 7, read-out: mean log10 of the GI50 values (converted)
[26] = Homo sapiens, five-dose, read-out: GI50
[27] = Homo sapiens, five-dose, read-out: LC50 (the source's name)
[28] = Homo sapiens, read-out: LC50 (the source's name)

With `O=C1c2ccccc2C(=O)c2c1cc(Cl)c1nsnc21` [NSC757963] the GI50 [1, 25] was 91.2 µM, the GI50 [1, 26] was > 100 µM and the CC50 [1, 27] was > 100 µM. For the same compound, the TGI ([1]; five-dose) was >100 µM, the GI50 [2, 25] was 10.5 µM and the GI50 [2, 26] was 11 µM. For the same compound, the CC50 [2, 27] was 48.7 µM, the TGI ([2]; five-dose) was 23.2 µM and the GI50 [3, 25] was 16.2 µM. The LC50 (concentration killing 50% of cells) ([3]; Homo sapiens, five-dose) was 53.9 µM, the GI50 [3, 26] was 14.9 µM and the TGI ([3]; five-dose) was 28.3 µM. The GI50 [4, 25] was 1.66 µM, the GI50 [4, 26] was 1.6 µM and the CC50 [4, 27] was 8.18 µM. It also gave a TGI ([4]; five-dose) of 3.62 µM, a GI50 [5, 25] of 1.95 µM and a GI50 [5, 26] of 2.07 µM. It also gave a CC50 [5, 27] of 13.9 µM, a TGI ([5]; five-dose) of 4.83 µM and a GI50 [6, 25] of 1.91 µM. For the same compound, the GI50 [6, 26] was 2.17 µM, the CC50 [6, 27] was 69.1 µM and the TGI ([6]; five-dose) was 6.89 µM. For the same compound, the GI50 ([7]; Homo sapiens, U-251, Fig 7, read-out: mean log10 of the GI50 values (converted)) was 2.34 µM, the GI50 ([7]; Homo sapiens, U-251, five-dose, read-out: GI50) was 3.29 µM and the CC50 ([7]; Homo sapiens, U-251, five-dose, read-out: LC50 (the source's name)) was 32.7 µM. The TGI ([7]; five-dose) was 10.4 µM, the GI50 [8, 25] was 1.66 µM and the GI50 [8, 26] was 1.46 µM. It also gave a CC50 [8, 27] of 5.5 µM, a TGI ([8]; five-dose) of 2.83 µM and a TGI ([9]; 786–0, five-dose) of 31.8 µM. For the same compound, the GI50 ([9]; Homo sapiens, 786-0, Fig 7, read-out: mean log10 of the GI50 values (converted)) was 6.61 µM, the GI50 ([9]; Homo sapiens, 786–0, five-dose, read-out: GI50) was 17.2 µM and the CC50 ([9]; Homo sapiens, 786–0, five-dose, read-out: LC50 (the source's name)) was 58.8 µM. It also gave a GI50 [10, 25] of 7.08 µM, a GI50 [10, 26] of 12.3 µM and a CC50 [10, 27] of 58.8 µM. The TGI ([10]; five-dose) was 26.8 µM, the GI50 [11, 25] was 15.8 µM and the GI50 [11, 26] was 18.1 µM. It also gave a CC50 [11, 27] of 58.9 µM, a TGI ([11]; five-dose) of 32.7 µM and a TGI [12] of 3.2 µM. It also gave a GI50 ([12]; Homo sapiens) of 1.7 µM, a CC50 [12, 28] of 6 µM and a TGI [13] of 3.4 µM. The GI50 ([13]; Homo sapiens) was 1.9 µM, the CC50 [13, 28] was 6.4 µM and the TGI [14] was 3.8 µM. For the same compound, the GI50 ([14]; Homo sapiens) was 2.1 µM, the CC50 [14, 28] was 6.8 µM and the TGI [15] was 3.9 µM. It also gave a GI50 ([15]; Homo sapiens) of 1.9 µM, a CC50 [15, 28] of 7.9 µM and a TGI [16] of 4.0 µM. The GI50 ([16]; Homo sapiens) was 1.9 µM, the CC50 [16, 28] was 8.3 µM and the TGI [17] was 17.0 µM. For the same compound, the GI50 ([17]; Homo sapiens) was 4.2 µM, the CC50 [17, 28] was 51 µM and the TGI [18] was 3.0 µM. It also gave a GI50 ([18]; Homo sapiens) of 1.6 µM, a CC50 [18, 28] of 5.5 µM and a TGI [19] of 3.1 µM. For the same compound, the GI50 ([19]; Homo sapiens) was 1.7 µM, the CC50 [19, 28] was 5.9 µM and the TGI [20] was 3.4 µM. For the same compound, the GI50 ([20]; Homo sapiens, MKN-1) was 1.8 µM, the CC50 ([20]; Homo sapiens, MKN-1, read-out: LC50 (the source's name)) was 6.6 µM and the TGI [21] was 3.2 µM. For the same compound, the GI50 ([21]; Homo sapiens) was 1.6 µM, the CC50 [21, 28] was 6.5 µM and the “selectivity ratios of the NCI subpanels other than leukemia” value [22] was “less than 3”. It also gave a GI50 ([22]; Fig 7, read-out: MG-MID of mean log10 GI50 (converted)) of 4.47 µM, a GI50 ([22]; NCI Breast Cancer, read-out: Mean GI50 of subpanel) of 5.11 µM and a GI50 ([22]; NCI CNS Cancer, read-out: Mean GI50 of subpanel) of 7.71 µM. The GI50 ([22]; NCI Colon Cancer, read-out: Mean GI50 of subpanel) was 11.4 µM, the GI50 ([22]; NCI Leukemia, read-out: Mean GI50 of subpanel) was 1.4 µM and the GI50 ([22]; NCI Melanoma, read-out: Mean GI50 of subpanel) was 8.44 µM. It also gave a GI50 ([22]; NCI Non-Small Cell Lung Cancer, read-out: Mean GI50 of subpanel) of 20.7 µM, a GI50 ([22]; NCI Ovarian Cancer, read-out: Mean GI50 of subpanel) of 6.77 µM and a GI50 ([22]; NCI Prostate Cancer, read-out: Mean GI50 of subpanel) of 8.53 µM. For the same compound, the GI50 ([22]; NCI Renal Cancer, read-out: Mean GI50 of subpanel) was 18.5 µM, the GI50 ([22]; all NCI subpanels, read-out: mean GI50 values of the NCI 60 subpanels, range) was 1.4 to 20.7 µM and the GI50 ([22]; equivalent to MID, read-out: Mean GI50 of all NCI-60 cell line panels) was 10.9 µM. It also gave a GI50 ([22]; five-dose, read-out: NCI-60 GI50 values, range over cell lines) of 0.33 to 72.8 µM, a Selectivity ratio ([22]; NCI Breast Cancer) of 2.14 and a Selectivity ratio ([22]; NCI CNS Cancer) of 1.41. The Selectivity ratio ([22]; NCI Colon Cancer) was 0.96, the Selectivity ratio ([22]; NCI Leukemia) was 7.79 and the Selectivity ratio ([22]; NCI Melanoma) was 1.29. For the same compound, the Selectivity ratio ([22]; NCI Non-Small Cell Lung Cancer) was 0.53, the Selectivity ratio ([22]; NCI Ovarian Cancer) was 1.61 and the Selectivity ratio ([22]; NCI Prostate Cancer) was 1.28. The Selectivity ratio ([22]; NCI Renal Cancer) was 0.59, the “cytotoxicity towards normal cardiac myoblast H9c2 cells” value [23] was “significantly less cytotoxic effects on H9c2 cells at higher doses than doxorubicin” and the GI50 ([24]; Homo sapiens, MDA-MB-468) was 1.38 µM. It also gave a CC50 ([24]; Homo sapiens, MDA-MB-468, read-out: LC50) of 6.25 µM, an inhibition at 10 µM ([24]; Homo sapiens, MDA-MB-468, read-out: growth inhibition) of 88.3% and a GI50 ([24]; Homo sapiens, MDA-MB-468, read-out: mean log10 of the GI50 values (converted)) of 0.631 µM. For the same compound, the TGI ([24]; MDA-MB-468, five-dose) was 2.93 µM.
